Data: ChEMBL document CHEMBL4118122, “Identification and biological evaluation of thiazole-based inverse agonists of RORγt” (Bioorg Med Chem Lett, 2018)

Key:
[1] = target: C-X-C chemokine receptor type 2 (Homo sapiens, UniProt P25025); assay: Displacement of [125I]IL-8 from human recombinant CXCR2 receptor after 60 mins by scintillation counting analysis
[2] = target: Mitogen-activated protein kinase 3 (Homo sapiens) (UniProt P27361); assay: Inhibition of recombinant full length GST-tagged human ERK1 expressed in Escherichia coli at 10 uM in presence of ATP relative to control
[3] = target: Rho-associated protein kinase 1 (Homo sapiens) (UniProt Q13464); assay: Inhibition of recombinant N-terminal GST-tagged human ROCK1 catalytic domain (1 to 535 residues) expressed in baculovirus expression system at 10 uM in presence of ATP relative to control
Rho-associated protein kinase 1 (Homo sapiens), sequence (Q13464 2-1354 limits assumed): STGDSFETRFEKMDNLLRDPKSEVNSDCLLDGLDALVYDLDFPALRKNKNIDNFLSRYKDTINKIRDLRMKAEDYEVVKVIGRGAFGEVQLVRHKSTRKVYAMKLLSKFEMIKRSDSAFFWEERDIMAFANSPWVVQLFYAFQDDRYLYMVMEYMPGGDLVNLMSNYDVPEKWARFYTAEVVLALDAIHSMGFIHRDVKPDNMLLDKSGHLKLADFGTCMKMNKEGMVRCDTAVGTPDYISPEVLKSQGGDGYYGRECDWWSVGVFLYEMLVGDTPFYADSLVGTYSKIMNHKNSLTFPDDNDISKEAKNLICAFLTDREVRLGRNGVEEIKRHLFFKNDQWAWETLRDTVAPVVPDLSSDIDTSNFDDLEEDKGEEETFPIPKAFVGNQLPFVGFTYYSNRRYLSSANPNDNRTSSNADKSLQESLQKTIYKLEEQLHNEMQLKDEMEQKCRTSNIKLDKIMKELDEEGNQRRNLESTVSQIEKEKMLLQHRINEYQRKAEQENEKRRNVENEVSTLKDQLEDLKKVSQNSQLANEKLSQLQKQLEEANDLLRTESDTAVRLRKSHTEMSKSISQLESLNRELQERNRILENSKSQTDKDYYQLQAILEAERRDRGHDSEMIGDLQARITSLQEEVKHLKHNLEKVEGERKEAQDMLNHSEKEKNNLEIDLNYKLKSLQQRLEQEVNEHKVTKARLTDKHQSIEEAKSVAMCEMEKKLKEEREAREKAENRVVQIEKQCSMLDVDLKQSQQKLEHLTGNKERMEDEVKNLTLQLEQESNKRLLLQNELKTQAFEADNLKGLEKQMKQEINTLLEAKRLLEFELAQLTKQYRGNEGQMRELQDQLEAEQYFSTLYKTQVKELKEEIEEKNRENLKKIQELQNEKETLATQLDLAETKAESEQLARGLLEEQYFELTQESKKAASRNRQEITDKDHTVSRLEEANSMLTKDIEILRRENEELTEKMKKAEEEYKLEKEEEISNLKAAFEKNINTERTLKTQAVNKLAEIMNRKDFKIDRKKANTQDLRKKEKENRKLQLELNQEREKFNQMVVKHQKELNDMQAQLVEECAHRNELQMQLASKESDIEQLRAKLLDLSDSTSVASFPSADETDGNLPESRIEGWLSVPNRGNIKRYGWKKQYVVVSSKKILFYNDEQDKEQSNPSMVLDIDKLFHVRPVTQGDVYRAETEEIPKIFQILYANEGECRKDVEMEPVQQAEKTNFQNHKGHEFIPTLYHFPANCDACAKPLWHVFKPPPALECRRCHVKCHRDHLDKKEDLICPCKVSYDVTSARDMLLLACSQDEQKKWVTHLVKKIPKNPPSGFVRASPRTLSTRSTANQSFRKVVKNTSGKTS

[4] = target: Tyrosine-protein kinase Blk (Homo sapiens) (UniProt P51451); assay: Inhibition of recombinant full length His-tagged human Blk cytoplasmic domain expressed in Baculovirus expression system at 10 uM in presence of ATP relative to control
[5] = target: Somatostatin receptor (Mus musculus) (UniProt P30935+O08858+P30875+P30873+P49660); assay: Displacement of [125I]Tyr11-somatostatin-14 from mouse SST receptor at 1 uM after 60 mins by scintillation counting analysis relative to control; assay type: protein assay
[6] = target: T1, Nuclear receptor ROR-gamma (Homo sapiens, UniProt P51449); assay: Inverse agonist activity at RORgammat in human CD4 positive T cells assessed as inhibition of IL17A production in human Th17 cells after 1 hr; assay type: cell-based
T1 sequence (P51449 whole entry): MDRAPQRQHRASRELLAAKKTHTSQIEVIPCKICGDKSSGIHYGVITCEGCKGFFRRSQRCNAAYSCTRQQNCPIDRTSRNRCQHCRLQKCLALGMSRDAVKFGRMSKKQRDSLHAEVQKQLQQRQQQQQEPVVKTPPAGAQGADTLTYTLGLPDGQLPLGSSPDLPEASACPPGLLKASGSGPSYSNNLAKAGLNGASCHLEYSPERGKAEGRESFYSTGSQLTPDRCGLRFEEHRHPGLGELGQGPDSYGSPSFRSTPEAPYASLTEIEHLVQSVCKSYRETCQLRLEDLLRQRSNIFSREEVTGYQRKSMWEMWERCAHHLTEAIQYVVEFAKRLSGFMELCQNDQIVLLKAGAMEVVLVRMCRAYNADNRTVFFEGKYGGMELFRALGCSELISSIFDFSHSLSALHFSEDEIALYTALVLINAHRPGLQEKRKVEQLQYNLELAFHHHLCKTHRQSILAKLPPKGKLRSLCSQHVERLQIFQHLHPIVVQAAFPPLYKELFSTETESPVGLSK

Rattus norvegicus [7] = species on record: Rattus norvegicus; assay: Displacement of [3H]D 888 from rat brain L-type calcium channel verapamil binding site at 1 uM after 120 mins by scintillation counting analysis relative to control
[8] = Half life in human microsomes; assay type: ADME, Microsome
[9] = target: Adenosine receptor A3 (Homo sapiens) (UniProt P0DMS8); assay: Displacement of [125I]AB-MECA from human recombinant adenosine A3 receptor at 1 uM after 120 mins by scintillation counting analysis relative to control
[10] = target: Kappa-type opioid receptor (Homo sapiens, UniProt P41145); assay: Displacement of [3H]U69593 from human kappa receptor after 60 mins by scintillation counting analysis
Kappa-type opioid receptor, sequence (P41145 whole entry): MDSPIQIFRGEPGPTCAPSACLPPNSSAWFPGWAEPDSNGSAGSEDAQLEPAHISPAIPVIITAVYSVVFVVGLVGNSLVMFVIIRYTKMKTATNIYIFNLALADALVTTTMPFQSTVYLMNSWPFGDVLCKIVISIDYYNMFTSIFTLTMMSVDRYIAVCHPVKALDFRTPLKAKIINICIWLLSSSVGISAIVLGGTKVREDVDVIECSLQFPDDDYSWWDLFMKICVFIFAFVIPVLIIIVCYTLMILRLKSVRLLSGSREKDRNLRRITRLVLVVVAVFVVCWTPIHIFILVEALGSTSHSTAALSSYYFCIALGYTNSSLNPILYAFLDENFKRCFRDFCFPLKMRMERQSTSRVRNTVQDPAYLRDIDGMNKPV

[11] = target: Neuropeptide Y receptor type 2 (Homo sapiens) (UniProt P49146); assay: Displacement of [125I]peptide YY from human Y2 receptor at 10 uM after 120 mins by scintillation counting analysis relative to control
Neuropeptide Y receptor type 2 (Homo sapiens), sequence (P49146 whole entry): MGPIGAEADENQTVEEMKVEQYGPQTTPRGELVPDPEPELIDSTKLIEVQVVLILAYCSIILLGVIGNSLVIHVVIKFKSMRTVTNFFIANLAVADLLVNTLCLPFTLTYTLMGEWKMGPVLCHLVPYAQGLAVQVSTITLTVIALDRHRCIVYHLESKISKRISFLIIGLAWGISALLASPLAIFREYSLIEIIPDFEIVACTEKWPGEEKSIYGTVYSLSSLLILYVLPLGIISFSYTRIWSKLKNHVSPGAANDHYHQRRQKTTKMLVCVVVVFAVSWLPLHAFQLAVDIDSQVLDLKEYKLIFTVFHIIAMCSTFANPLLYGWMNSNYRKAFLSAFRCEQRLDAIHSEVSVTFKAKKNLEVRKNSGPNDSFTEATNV

[12] = Half life in rat microsomes; assay type: ADME, Microsome
D(2) dopamine receptor = D(2) dopamine receptor (Homo sapiens, UniProt P14416); assay: Displacement of [3H]7-OH-DPAT from human recombinant dopamine D2S receptor at 10 uM after 60 mins by scintillation counting analysis relative to control
D(2) dopamine receptor, sequence (P14416 whole entry): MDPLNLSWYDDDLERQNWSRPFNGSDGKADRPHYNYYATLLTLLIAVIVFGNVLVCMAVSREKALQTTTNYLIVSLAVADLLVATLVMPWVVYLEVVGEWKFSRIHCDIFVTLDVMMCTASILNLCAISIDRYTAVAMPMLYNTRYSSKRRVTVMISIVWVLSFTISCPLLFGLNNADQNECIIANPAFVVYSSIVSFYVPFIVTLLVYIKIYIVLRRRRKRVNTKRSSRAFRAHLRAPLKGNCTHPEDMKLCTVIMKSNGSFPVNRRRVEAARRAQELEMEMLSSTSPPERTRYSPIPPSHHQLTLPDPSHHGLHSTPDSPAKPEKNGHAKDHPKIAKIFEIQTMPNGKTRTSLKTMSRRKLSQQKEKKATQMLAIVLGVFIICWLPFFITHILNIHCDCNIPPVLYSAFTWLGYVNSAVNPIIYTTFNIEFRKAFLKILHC

[13] = target: Adrenergic receptor alpha-1 (Rattus norvegicus) (UniProt P15823+P23944+P43140); assay: Displacement of [3H]-prazosin from rat alpha1 adrenoceptor at 10 uM after 60 mins by scintillation counting analysis relative to control; assay type: protein assay
Rattus norvegicus [14] = species on record: Rattus norvegicus; assay: Displacement of [3H]flunitrazepam from rat brain central BZD at 10 uM after 60 mins relative to control
[15] = target: 5-hydroxytryptamine receptor 2B (Homo sapiens, UniProt P41595); assay: Displacement of [125I]+/-DOI from human recombinant 5-HT2B receptor at 10 uM after 60 mins by scintillation counting analysis relative to control
5-hydroxytryptamine receptor 2B, sequence (P41595 whole entry): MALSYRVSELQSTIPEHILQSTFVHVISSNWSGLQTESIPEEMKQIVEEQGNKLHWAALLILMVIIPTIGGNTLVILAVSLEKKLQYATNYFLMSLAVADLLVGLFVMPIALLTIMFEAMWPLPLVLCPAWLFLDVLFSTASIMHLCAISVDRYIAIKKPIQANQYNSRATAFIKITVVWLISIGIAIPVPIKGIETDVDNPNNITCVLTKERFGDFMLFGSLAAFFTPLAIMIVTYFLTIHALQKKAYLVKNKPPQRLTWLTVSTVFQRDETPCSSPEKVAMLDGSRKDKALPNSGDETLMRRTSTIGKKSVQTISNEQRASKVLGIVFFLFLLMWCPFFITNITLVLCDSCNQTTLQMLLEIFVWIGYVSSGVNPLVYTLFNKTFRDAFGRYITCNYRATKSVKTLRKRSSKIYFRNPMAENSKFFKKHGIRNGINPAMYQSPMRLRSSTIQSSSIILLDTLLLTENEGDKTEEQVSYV

[16] = target: Mitogen-activated protein kinase 13 (Homo sapiens) (UniProt O15264); assay: Inhibition of recombinant full length His-tagged human p38delta expressed in baculovirus expression system at 10 uM in presence of ATP relative to control
Mitogen-activated protein kinase 13 (Homo sapiens), sequence (O15264 whole entry): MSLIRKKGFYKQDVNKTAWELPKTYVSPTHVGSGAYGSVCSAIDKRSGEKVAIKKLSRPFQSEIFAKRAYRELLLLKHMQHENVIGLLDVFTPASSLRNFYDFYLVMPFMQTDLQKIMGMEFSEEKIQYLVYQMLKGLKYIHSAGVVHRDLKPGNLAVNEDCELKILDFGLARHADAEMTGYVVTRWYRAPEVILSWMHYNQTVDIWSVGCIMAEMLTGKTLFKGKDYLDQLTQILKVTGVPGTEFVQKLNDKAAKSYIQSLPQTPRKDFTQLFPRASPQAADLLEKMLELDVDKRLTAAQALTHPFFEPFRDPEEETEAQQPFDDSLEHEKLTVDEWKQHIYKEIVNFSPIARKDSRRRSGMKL

Melanocortin receptor 4 = Melanocortin receptor 4 (Homo sapiens, UniProt P32245); assay: Displacement of [125I]NDP-alpha -MSH from human recombinant MC4 receptor after 120 mins by scintillation counting analysis
[17] = target: Serine/threonine-protein kinase Nek2 (Homo sapiens) (UniProt P51955); assay: Inhibition of recombinant full length His-tagged human NEK2 expressed in baculovirus expression system at 10 uM in presence of ATP relative to control
Serine/threonine-protein kinase Nek2 (Homo sapiens), sequence (P51955 whole entry): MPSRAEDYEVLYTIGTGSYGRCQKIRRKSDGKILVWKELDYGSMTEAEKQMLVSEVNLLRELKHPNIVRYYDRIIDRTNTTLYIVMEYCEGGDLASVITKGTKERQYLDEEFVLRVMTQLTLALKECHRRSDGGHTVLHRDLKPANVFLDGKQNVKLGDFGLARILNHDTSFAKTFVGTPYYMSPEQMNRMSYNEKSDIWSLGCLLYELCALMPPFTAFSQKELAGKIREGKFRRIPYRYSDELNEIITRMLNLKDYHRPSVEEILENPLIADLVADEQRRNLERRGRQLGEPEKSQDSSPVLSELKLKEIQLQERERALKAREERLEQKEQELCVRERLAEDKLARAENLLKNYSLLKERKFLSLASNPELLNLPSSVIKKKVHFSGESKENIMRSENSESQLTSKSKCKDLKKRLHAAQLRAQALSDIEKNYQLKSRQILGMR

[18] = target: Neuropeptide Y receptor type 2 (Homo sapiens) (UniProt P49146); assay: Displacement of [125I]peptide YY from human Y2 receptor at 1 uM after 120 mins by scintillation counting analysis relative to control
[19] = target: Neuropeptide Y receptor type 1 (Homo sapiens, UniProt P25929); assay: Displacement of [125I]peptide YY from human Y1 receptor after 120 mins by scintillation counting analysis
Neuropeptide Y receptor type 1, sequence (P25929 whole entry): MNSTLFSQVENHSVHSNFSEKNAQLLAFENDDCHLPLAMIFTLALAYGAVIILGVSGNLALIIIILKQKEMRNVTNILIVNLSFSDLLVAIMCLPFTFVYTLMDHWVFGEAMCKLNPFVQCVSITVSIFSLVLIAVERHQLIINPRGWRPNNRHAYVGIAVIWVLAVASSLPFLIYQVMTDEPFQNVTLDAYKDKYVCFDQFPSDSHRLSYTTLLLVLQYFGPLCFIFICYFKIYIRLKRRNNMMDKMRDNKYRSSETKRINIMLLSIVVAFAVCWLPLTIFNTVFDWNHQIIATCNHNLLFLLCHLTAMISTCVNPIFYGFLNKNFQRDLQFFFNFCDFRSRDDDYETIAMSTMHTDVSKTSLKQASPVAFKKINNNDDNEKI

[20] = target: 5-hydroxytryptamine receptor 3A (Homo sapiens) (UniProt P46098); assay: Displacement of [3H]BRL 43694 from human recombinant 5-HT3 receptor at 10 uM after 120 mins by scintillation counting analysis relative to control
[21] = Binding affinity to rat GABA receptor after 60 mins by agonist radioligand binding assay
[22] = target: T1, Nuclear receptor ROR-gamma; assay: Inverse agonist activity at human GAL4 DBD-fused RORgammat LBD (237 to 497 residues) expressed in HEK293T cells assessed as reduction in ROR mediated transcriptional activity after 24 hrs by dual glo luciferase reporter gene assay; assay type: cell-based
[23] = target: Serine/threonine-protein kinase PAK 4 (Homo sapiens) (UniProt O96013); assay: Inhibition of recombinant GST-tagged human PAK4 catalytic domain expressed in baculovirus expression system at 10 uM in presence of ATP relative to control
Serine/threonine-protein kinase PAK 4 (Homo sapiens), sequence (O96013 whole entry, looked up, the tested form may be a part): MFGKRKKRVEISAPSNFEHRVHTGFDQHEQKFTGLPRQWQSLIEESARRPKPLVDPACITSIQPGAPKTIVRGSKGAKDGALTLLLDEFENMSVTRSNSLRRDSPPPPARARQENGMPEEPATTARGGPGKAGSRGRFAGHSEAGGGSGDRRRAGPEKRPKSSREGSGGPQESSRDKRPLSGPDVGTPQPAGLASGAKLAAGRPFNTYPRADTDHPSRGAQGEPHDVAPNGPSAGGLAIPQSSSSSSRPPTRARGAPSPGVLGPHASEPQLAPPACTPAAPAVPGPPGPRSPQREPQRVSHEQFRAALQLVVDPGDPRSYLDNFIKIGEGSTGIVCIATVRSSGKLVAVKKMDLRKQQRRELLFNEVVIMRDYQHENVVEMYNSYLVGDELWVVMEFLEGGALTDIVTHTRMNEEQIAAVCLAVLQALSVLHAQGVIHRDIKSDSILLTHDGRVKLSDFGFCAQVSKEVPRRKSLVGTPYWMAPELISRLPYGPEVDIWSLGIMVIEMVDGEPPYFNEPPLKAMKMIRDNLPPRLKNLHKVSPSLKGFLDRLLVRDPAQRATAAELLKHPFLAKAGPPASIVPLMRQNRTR

[24] = target: Small conductance calcium-activated potassium channel (Rattus norvegicus) (UniProt P70604+P70606+P70605); assay: Displacement of [125I]apamin from rat brain SkCa channel at 10 uM after 60 mins by scintillation counting analysis relative to control
[25] = target: Neuropeptide Y receptor type 1 (Homo sapiens) (UniProt P25929); assay: Displacement of [125I]peptide YY from human Y1 receptor at 10 uM after 120 mins by scintillation counting analysis relative to control
Neuropeptide Y receptor type 1 (Homo sapiens), sequence (P25929 whole entry): as the sequence (P25929 whole entry) above

Rattus norvegicus [26] = species on record: Rattus norvegicus; assay: Displacement of [125I]alpha-dendrotoxin from rat brain voltage-gated K channel at 1 uM after 60 mins by scintillation counting analysis relative to control

Work on `CC(C)(C)NS(=O)(=O)c1ccc(-c2sc(C(=O)N[C@H]3C[C@H](C(=O)O)C3)nc2CC2CCCCC2)c2ccccc12` yielded an IC50 [1] of 240 pM, an inhibition [2] of -7% and an inhibition [3] of -10%. For the same molecule, the inhibition [4] was -5%, the inhibition [5] was < 10% and the EC50 [6] was 2800 pM. For the same molecule, the inhibition (Rattus norvegicus [7]) was < 10%, the half-life [8] was 1.25 h and the inhibition [9] was 24%. The IC50 [10] was 1100 pM, the inhibition [11] was < 10% and the half-life [12] was 0.783 h. For the same molecule, the inhibition (D(2) dopamine receptor) was 19%, the inhibition [13] was < 10% and the inhibition (Rattus norvegicus [14]) was < 10%. For the same molecule, the inhibition [15] was < 10%, the inhibition [16] was -4% and the IC50 (Melanocortin receptor 4) was 210 pM. For the same molecule, the inhibition [17] was -6%, the inhibition [18] was < 10% and the IC50 [19] was 130 pM. For the same molecule, the inhibition [20] was 12%, the IC50 [21] was 114000 pM and the IC50 [22] was 940 pM. The inhibition [23] was 7%, the inhibition [24] was < 10% and the inhibition [25] was < 10%. For the same molecule, the inhibition (Rattus norvegicus [26]) was < 10%.
